Assay results taken from patent US8912146B2, “Derivatives of APF and methods of use” (University of Maryland, Baltimore, priority 2008, dated 2014).
“Also recorded” adds a separate entry of the source. *1 amine or outer side, *2 acyl side, *3 side chain or, on linkers, in order; H or OH if unused. Where a SMILES comes first, the peptide text is derived from it. [ ]: non-standard residue; d: D form. The star is where a group is joined. ξ: configuration not given here. X1 = CC(=O)NC1C(O[C@@H]2OC(CO)[C@H](O)C(O)C2O)[C@@H](O)C(CO)O[C@@H]1*; X2 = CC(C)(C)OC1C[C@@H](C(=O)[*:2])N([*:1])C1; Thr(3ξ) = CC(O)[C@H](N)C(=O)O; ξY = NC(Cc1ccc(O)cc1)C(=O)O; NMeA = CN[C@@H](C)C(=O)O; ξL = CC(C)CC(N)C(=O)O; ξV = CC(C)C(N)C(=O)O; ξA = CC(N)C(=O)O

Tests used:
[1] = system: primary normal human bladder epithelial cells; settings: Keay et al., 2004; cited from earlier work
[2] = system: primary normal human bladder epithelial cells; test: 3H-thymidine incorporation (antiproliferative activity) in primary normal bladder epithelial cells; format: cell-based; settings: for % of activity: relative to 1 (as-APF) run on the same plate, from IC50, inactive = no significant activity at <25 μM
Description: Cell Culture. Cystoscopy was performed under general anesthesia, and 4-mm^2 pieces of transitional epithelium with submucosal bladder tissue were obtained for the growth of primary bladder epithelial cells, as previously described (Keay et al., 1996; 2004). Primary normal bladder epithelial cells were propagated in DMEM-F12 (Media-Tech, Herndon Va.) with 10% heat-inactivated fetal bovine serum (FBS), 1% antibiotic/antimycotic solution, 1% L-glutamine, 0.25 units/mL insulin (all from Sigma, St. Louis, Mo.), and 5 ng/mL hEGF (R&D Systems, Minneapolis, Minn.) at 37° C. in a 5% CO2 atmosphere and characterized by binding of AE-1/AE-3 pancytokeratin antibodies (Signet, Dedham, Mass.).
^3H-Thymidine Incorporation. Cell proliferation was measured by ^3H-thymidine incorporation into explanted normal human bladder epithelial cells, plating 1.5×10^4 cells/well onto a 96 well cell culture plate (VWR 29442-054), in 150 ul/well MEM containing 10% heat inactivated FBS, 1% antibiotic/antimycotic solution, and 1% L-glutamine (all from Sigma), resulting in a doubling time of 48-72 hours, as previously described (Keay et al., 1996; 2004). Each purified lyophilized synthetic APF congener was resuspended in acetonitrile/distilled water (1:1), and applied to the cells in serum-free MEM (containing only L-glutamine and antibiotics/antimycotics); cell controls received acetonitrile/distilled water diluted in serum-free MEM alone. Cells were then incubated at 37° C. in a 5% CO2 atmosphere for 48 hours. The cell contents harvested and methanol-fixed onto glass fiber filter paper, and the amount of radioactivity incorporated determined. Significant inhibition of ^3H-thymidine incorporation was defined as a mean decrease in counts per minute of greater than 2 standard deviations from the mean of control cells for each plate. Inhibition of cell proliferation was determined from a semi-log plot of dose-response for each APF derivative; IC50 was determined as the concentration of each derivative that caused a mean 50% inhibition of thymidine incorporation as compared to the mean of untreated cell controls.
Statistical Analysis. The thymidine incorporation (APF biological activity) assay was performed in triplicate on at least two separate runs, with 1 run simultaneously in triplicate on the same plate. The significance of the difference between mean values for each congener vs. mean values for compound 1 was determined by an analysis of variance.

[3] = system: Hs839.T melanoma cells; test: 3H-thymidine incorporation in melanoma cells; format: cell-based; settings: 48 hrs, compared to cell medium alone (p<0.00001); listed as negative control peptide
Description: Ovarian carcinoma (Caov-3), prostate carcinoma (LNCaP), melanoma (Hs839.T), pancreatic carcinoma (PANC-1), bladder carcinoma (T24, RT4 and TCCSuP), kidney carcinoma (ACHN), cervical carcinoma (HeLa), lung carcinoma (A549), colon carcinoma (WiDr), and breast carcinoma (Bt-474) cells were all purchased from the American Type Culture Collection (ATCC). Caov-3, HS839.T, PANC-1, and BT-474 cells were grown in DMEM medium (with 4 mM L-glutamine—Gibco BRL) containing 10% heat-inactivated fetal calf serum, 4.5 g/L glucose, 1.5 g/L sodium bicarbonate and 1% antibiotic/antimycotic solution (all supplements from Sigma except sodium bicarbonate which is from Gibco BRL). LNCaP cells were grown in RPMI medium (with 2 mM L-glutamine—Gibco BRL) containing10% heat-incativated fetal calf serum, 10 mM HEPES buffer, 1 mM sodium pyruvate, 4.5 g/L glucose, 1.5 g/L sodium bicarbonate, and 1% antibiotic/antimycotic solution (all supplements from Sigma except sodium bicarbonate which is from Gibco BRL). T24 and RT4 cells were grown in McCoy's 5A medium (Gibco BRL) containing 10% heat-inactivated fetal calf serum, 1% L-glutamine, 2.2 g/L sodium bicarbonate, and 1% antibiotic/antimycotic solution (all supplements from Sigma except sodium bicarbonate which is from Gibco BRL). TCCSuP, HeLa, and WiDr cells were grown in MEM (Gibco BRL) containing 10% heat-inactivated fetal calf serum, 1% L-glutamine, 1 mM sodium pyruvate, and 1% antibiotic/antimycotic solution (all supplements from Sigma). ACHN cells were grown in the same medium as TCCSuP and HeLa cells with the exception that it also contained 1.5 g/L sodium bicarbonate (Gibco BRL). A549 cells were grown in F12 medium (Gibco BRL) containing 10% heat-inactivated fetal calf serum, 1% L-glutamine, and 1% antibiotic/antimycotic solution (all supplements from Sigma).
Cancer (carcinoma or melanoma) cell proliferation was measured by ^3H-thymidine incorporation into each type of cancer cell, plating 3.0×10^3 cells/well (A549 cells) or 1.5×10^3 cells/well (all other cancer cells) onto a 96 well cell culture plate (VWR 29442-054), in 150 ul/well of the respective normal growth medium for each cell type (see above). All APF congeners were resuspended as described for normal bladder epithelial cells, except using the specific serum-free medium appropriate for each cell type, and the remainder of the assay was performed as described for normal bladder cells, above.
(§1) Significance of the difference in mean values between groups was determined by an analysis of variance.
(§2) Cell proliferation was measured by ^3H-thymidine incorporation into each cell type, plating cells in […] of their respective medium (see above) onto a 96-well cell culture plate (Corning, N.Y.) at a predetermined optimal cell density for APF inhibition of cell proliferation: Caov-3, PANC-1, T24, HeLa, and HS839.T cells were plated at a density of 1.5×10^3 cells/well; A549 cells were plated at a density of 3×10^3 cells/well. On the next day, cell growth medium was removed and replaced with serum-free medium appropriate for each cell type. […] Cells were then incubated at 37° C. in a 5% CO2 atmosphere for 48 hours, after which cell contents were harvested, methanol-fixed onto glass fiber filter paper, and the amount of radioactivity incorporated determined. […]

[4] = system: carcinoma cell lines (WiDr, HeLa, PANC-1, CaOv3, BT474, ACHN, T24, A549); test: 3H-thymidine incorporation in carcinoma cell lines; format: cell-based; settings: 48 hrs, compared to cell medium alone (p<0.00001); listed as negative control peptide
Description: Ovarian carcinoma (Caov-3), prostate carcinoma (LNCaP), melanoma (Hs839.T), pancreatic carcinoma (PANC-1), bladder carcinoma (T24, RT4 and TCCSuP), kidney carcinoma (ACHN), cervical carcinoma (HeLa), lung carcinoma (A549), colon carcinoma (WiDr), and breast carcinoma (Bt-474) cells were all purchased from the American Type Culture Collection (ATCC). Caov-3, HS839.T, PANC-1, and BT-474 cells were grown in DMEM medium (with 4 mM L-glutamine—Gibco BRL) containing 10% heat-inactivated fetal calf serum, 4.5 g/L glucose, 1.5 g/L sodium bicarbonate and 1% antibiotic/antimycotic solution (all supplements from Sigma except sodium bicarbonate which is from Gibco BRL). LNCaP cells were grown in RPMI medium (with 2 mM L-glutamine—Gibco BRL) containing10% heat-incativated fetal calf serum, 10 mM HEPES buffer, 1 mM sodium pyruvate, 4.5 g/L glucose, 1.5 g/L sodium bicarbonate, and 1% antibiotic/antimycotic solution (all supplements from Sigma except sodium bicarbonate which is from Gibco BRL). […]
Cancer (carcinoma or melanoma) cell proliferation was measured by ^3H-thymidine incorporation into each type of cancer cell, plating 3.0×10^3 cells/well (A549 cells) or 1.5×10^3 cells/well (all other cancer cells) onto a 96 well cell culture plate (VWR 29442-054), in 150 ul/well of the respective normal growth medium for each cell type (see above). […]
as §1
as §2, with “cells/well.” for “cells/well. On the next day, cell growth medium was removed and replaced with serum-free medium appropriate for each cell type.”

| Compound | activity in biological antiproliferation assays, previously determined [1] | antiproliferative activity compared with as-APF (1), in words [2] | % of activity [2] | further results |
| --- | --- | --- | --- | --- |
| Galβ1-3GalNAcβ-O-TVPAAVVVA | completely inactive |  |  |  |
| Neu5Acα2-3Galβ1-3GalNAcα-O-TVPAAVVVA | essentially equipotent |  |  |  |
| Neu5Acα2-3Galβ1-4GlcNAcα-O-SLPAAVVVA | essentially equipotent |  |  |  |
| Neu5Ac α 2-3Galβ1-4-GlcNAcα-O-TVPAAVVVA | essentially equipotent |  |  |  |
| CC(=O)NC1C(O[C@@H]2OC(CO)[C@H](O)C(O)C2O)[C@@H](O)C(CO)O[C@@H]1OC(C)[C@H](N)C(=O)NC(C(=O)N1CCC[C@H]1C(=O)NC(C)C(=O)N[C@@H](C)C(=O)NC(C)C(=O)N[C@@H](C)C(=O)NC(C)C(=O)N[C@@H](C)C(=O)O)C(C)C (some centres unmarked) [Derivative 25] (H-[Thr(3ξ)](X1)[ξV]P[ξA]A[ξA]A[ξA]A-OH) |  | decreased antiproliferative activity | 1% |  |
| CC(=O)NC1C(O[C@@H]2OC(CO)[C@H](O)C(O)C2O)[C@@H](O)C(CO)O[C@@H]1OC[C@H](N)C(=O)NC(CC(C)C)C(=O)N1CCC[C@H]1C(=O)NC(C)C(=O)N[C@@H](C)C(=O)NC(C(=O)N[C@H](C(=O)NC(C(=O)N[C@@H](C)C(=O)O)C(C)C)C(C)C)C(C)C (some centres unmarked) [Derivative 2] (H-S(X1)[ξL]P[ξA]A[ξV]V[ξV]A-OH) |  | two orders of magnitude loss of potency | 1% |  |
| Galβ1-4GlcNAcα-O-SLPAAVVVA | essentially equipotent |  |  |  |
| CC(=O)NC1C(O[C@@H]2OC(CO)[C@H](O)C(O)C2O)[C@@H](O)C(CO)O[C@@H]1OC(C)[C@H](N)C(=O)NC(C(=O)N1CC(OC(C)(C)C)C[C@H]1C(=O)NC(C)C(=O)N[C@@H](C)C(=O)NC(C(=O)N[C@H](C(=O)NC(C(=O)N[C@@H](C)C(=O)O)C(C)C)C(C)C)C(C)C)C(C)C (some centres unmarked) [Derivative 13] (H-[Thr(3ξ)](X1)[ξV][X2][ξA]A[ξV]V[ξV]A-OH) |  | 2-3 orders of magnitude decrease | 0.2% |  |
| CC(=O)NC1C(O[C@@H]2OC(CO)[C@H](O)C(O)C2O)[C@@H](O)C(CO)O[C@@H]1OC(C)[C@H](N)C(=O)NC(Cc1ccc(O)cc1)C(=O)N1CCC[C@H]1C(=O)NC(C)C(=O)N[C@@H](C)C(=O)NC(C(=O)N[C@H](C(=O)NC(C(=O)N[C@@H](C)C(=O)O)C(C)C)C(C)C)C(C)C (some centres unmarked) [Derivative 7] (H-[Thr(3ξ)](X1)[ξY]P[ξA]A[ξV]V[ξV]A-OH) |  | complete inactivation | inactive |  |
| CC(=O)NC1C(O[C@@H]2OC(CO)[C@H](O)C(O)C2O)[C@@H](O)C(CO)O[C@@H]1OC(C)[C@H](N)C(=O)NC(C(=O)N1CCC[C@H]1C(=O)NC(C)C(=O)N[C@@H](C)C(=O)NC(C(=O)N[C@H](C(=O)NC(C(=O)O)C(C)C)C(C)C)C(C)C)C(C)C (some centres unmarked) [Derivative 18, Galβ1-3GalNAcα-O-TVPAAVVV] (H-[Thr(3ξ)](X1)[ξV]P[ξA]A[ξV]V[ξV]-OH) |  | full activity | 100% | activity ([2]; as-APF8 analogues Galβ1-3GalNAcα-O-TVPAA-R-R-R, Table 7): 100% |
| CC(=O)NC1C(O[C@@H]2OC(CO)[C@H](O)C(O)C2O)[C@@H](O)C(CO)O[C@@H]1OC(C)[C@H](N)C(=O)NC(C(=O)N(C)[C@@H](C)C(=O)NC(C)C(=O)N[C@@H](C)C(=O)NC(C(=O)N[C@H](C(=O)NC(C(=O)N[C@@H](C)C(=O)O)C(C)C)C(C)C)C(C)C)C(C)C (some centres unmarked) [Derivative 14] (H-[Thr(3ξ)](X1)[ξV][NMeA][ξA]A[ξV]V[ξV]A-OH) |  | 4 orders of magnitude decrease | 0.05% |  |
| CC(=O)NC1C(O[C@@H]2OC(CO)[C@H](O)C(O)C2O)[C@@H](O)C(CO)O[C@@H]1OC(C)[C@H](N)C(=O)NC(C(=O)N1CCC[C@H]1C(=O)NC(C)C(=O)N[C@@H](C)C(=O)NC(C(=O)N[C@H](C(=O)NC(C(=O)N[C@@H](C)C(=O)O)C(C)C)C(C)C)C(C)C)C(C)C (some centres unmarked) [Derivative 36] |  | complete inactivity | inactive |  |
| CC(=O)NC1C(O[C@@H]2OC(CO)[C@H](O)C(O)C2O)[C@@H](O)C(CO)O[C@@H]1OC(C)[C@H](N)C(=O)NC(CC(C)C)C(=O)N1CCC[C@H]1C(=O)NC(C)C(=O)N[C@@H](C)C(=O)NC(C(=O)N[C@H](C(=O)NC(C(=O)N[C@@H](C)C(=O)O)C(C)C)C(C)C)C(C)C (some centres unmarked) [Derivative 4] (H-[Thr(3ξ)](X1)[ξL]P[ξA]A[ξV]V[ξV]A-OH) |  | inactivation | inactive |  |
| CC(=O)NC1C(O[C@@H]2OC(CO)[C@H](O)C(O)C2O)[C@@H](O)C(CO)O[C@@H]1OC(C)[C@H](N)C(=O)NC(C(=O)N1CCC[C@H]1C(=O)NCCCCCCCCCCCC(=O)O)C(C)C (some centres unmarked) [Derivative 16] |  | completely inactive | inactive |  |
| CC(=O)NC1C(O[C@@H]2OC(CO)[C@H](O)C(O)C2O)[C@@H](O)C(CO)O[C@@H]1OC(C)[C@H](N)C(=O)NC(C(=O)N1CCC[C@H]1C(=O)NC(C)C(=O)N[C@@H](CO)C(=O)NC(C(=O)N[C@H](C(=O)NC(C(=O)N[C@@H](CO)C(=O)O)C(C)C)C(C)C)C(C)C)C(C)C (some centres unmarked) [Derivative 23] (H-[Thr(3ξ)](X1)[ξV]P[ξA]S[ξV]V[ξV]S-OH) |  | partial inactivation | 0.2% |  |
| TVPAAVVVA [nonglycosylated nonapeptide, reference compound] | completely inactive |  |  | inhibition of melanoma cell proliferation [3]: no effect; also recorded: none of these cell lines was inhibited; inhibition of carcinoma cell line proliferation [4]: no effect; also recorded: none of these cell lines was inhibited |
